Experimental data reported in ChEMBL document CHEMBL1139321, “Discovery of novel spirocyclopropyl hydroxamate and carboxylate compounds as TACE inhibitors” (Bioorg Med Chem Lett, 2009).

Key:
[1] = target: Disintegrin and metalloproteinase domain-containing protein 17 (Homo sapiens, UniProt P78536)
Description: Inhibition of TACE catalytic domain by FRET assay

[2] = system: Blood; assay: Inhibition of LPS-induced TNFalpha production in human whole blood after 1 hr by ELISA; type: functional, tissue-based

Chain of Disintegrin and metalloproteinase domain-containing protein 17 (P78536 whole entry, the tested form may be a part): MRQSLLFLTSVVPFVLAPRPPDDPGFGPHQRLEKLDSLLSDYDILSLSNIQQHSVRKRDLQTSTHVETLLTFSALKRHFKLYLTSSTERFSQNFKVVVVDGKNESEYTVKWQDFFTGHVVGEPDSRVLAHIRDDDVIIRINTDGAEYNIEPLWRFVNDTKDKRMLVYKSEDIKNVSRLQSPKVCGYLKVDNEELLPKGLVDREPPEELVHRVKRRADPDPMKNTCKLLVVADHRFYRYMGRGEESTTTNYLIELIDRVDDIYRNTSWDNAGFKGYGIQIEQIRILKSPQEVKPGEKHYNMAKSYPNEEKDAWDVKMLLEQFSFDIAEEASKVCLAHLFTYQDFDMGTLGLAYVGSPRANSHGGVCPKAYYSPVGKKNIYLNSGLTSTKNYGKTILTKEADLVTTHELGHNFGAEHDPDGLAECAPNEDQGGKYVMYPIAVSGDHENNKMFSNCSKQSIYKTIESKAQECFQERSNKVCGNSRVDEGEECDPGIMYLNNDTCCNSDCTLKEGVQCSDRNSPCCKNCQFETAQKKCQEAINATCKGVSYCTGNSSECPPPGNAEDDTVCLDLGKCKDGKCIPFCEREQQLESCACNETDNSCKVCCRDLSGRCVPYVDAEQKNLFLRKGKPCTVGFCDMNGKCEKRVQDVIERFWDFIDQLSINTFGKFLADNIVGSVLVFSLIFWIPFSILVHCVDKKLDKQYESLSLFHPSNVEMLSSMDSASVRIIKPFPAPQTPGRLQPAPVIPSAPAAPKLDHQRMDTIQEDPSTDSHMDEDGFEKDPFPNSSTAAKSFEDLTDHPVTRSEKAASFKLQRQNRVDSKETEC

| SMILES | Ki [1] [µM] | IC50 [2] [µM] |
| --- | --- | --- |
| Cc1cc(COc2ccc(C3C[C@@]4(C[C@@H]4C(=O)NO)C(=O)N3)cc2)c2ccccc2n1 (stereo partly specified) | 0.032 |  |
| O=C(NO)[C@H]1C[C@@]12CC(c1ccc(OCc3cc(-c4ccncc4)nc4ccccc34)cc1)NC2=O (stereo partly specified) | 0.033 |  |
| O=C(NO)[C@H]1C[C@@]12CC(c1ccc(OCc3cc(-c4ccccc4)nc4ccccc34)cc1)NC2=O (mixture of isomers) | 0.03 | > 0.1 |
| O=C(NO)[C@H]1C[C@@]12CC(c1ccc(OCc3cc(-c4cccnc4)nc4ccccc34)cc1)NC2=O (mixture of isomers) | 0.032 |  |
| CN1C(=O)[C@@]2(CC1c1ccc(OCc3cc(-c4ccccc4)nc4ccccc34)c(F)c1)C[C@@H]2C(=O)NO (mixture of isomers) | 0.137 |  |
| O=C(O)[C@H]1C[C@@]12CC(c1ccc(OCc3cc(-c4ccccc4)nc4ccccc34)c(F)c1)NC2=O (mixture of isomers) | 0.04 | > 0.1 |
| O=C(O)[C@H]1C[C@@]12CC(c1ccc(OCc3cc(-c4cccnc4)nc4ccccc34)cc1)NC2=O (mixture of isomers) | 3.22 |  |
| COC(=O)[C@H]1C[C@@]12CC(c1ccc(OCc3cc(-c4ccccc4)nc4ccccc34)c(F)c1)N(C)C2=O (mixture of isomers) | > 50 |  |
| O=C(NO)[C@H]1C[C@@]12CC(c1ccc(OCc3cc(C(F)(F)F)nc4ccccc34)cc1)NC2=O (mixture of isomers) | 0.053 | > 0.1 |
| O=C(O)[C@H]1C[C@@]12CC(c1ccc(OCc3cc(C(F)(F)F)nc4ccccc34)cc1)NC2=O (mixture of isomers) | 2.14 | > 0.1 |
| Cc1cc(COc2ccc(C3C[C@@]4(C[C@@H]4C(=O)O)C(=O)N3)cc2)c2ccccc2n1 (mixture of isomers) | 3.07 |  |
| CN1C(=O)[C@@]2(CC1c1ccc(OCc3cc(-c4ccccc4)nc4ccccc34)c(F)c1)C[C@@H]2C(=O)O (mixture of isomers) | 0.094 |  |
| O=C(O)[C@H]1C[C@@]12CC(c1ccc(OCc3cc(-c4ccccc4)nc4ccccc34)cc1)NC2=O (mixture of isomers) | 0.143 | > 0.1 |
| O=C(O)[C@H]1C[C@@]12CC(c1ccc(OCc3cc(-c4ccncc4)nc4ccccc34)cc1)NC2=O (mixture of isomers) | 0.673 |  |
| O=C(NO)[C@H]1C[C@@]12CC(c1ccc(OCc3cc(-c4ccccc4)nc4ccccc34)c(F)c1)NC2=O (mixture of isomers) | 0.0067 | > 0.1 |
